According to PMC10693969 (Parasites, Hosts and Diseases, 2023):
Read-outs that look alike come from different tables or passages of the source.

Assays:
[1] = test system: Naegleria fowleri trophozoites (Carter NF69 strain, ATCC 30215); experiment: In vitro anti-N. fowleri activity, trophozoite viability; type: cell-based; details: for IC50: mean±SD of 3 independent experiments; for SI, sensitivity index (CC50 C6 glial cells / IC50 N. fowleri): ratio CC50 C6 glial cells / IC50 N. fowleri; for antiamoebic activity against N. fowleri (in words): in vitro
[2] = test system: A. castellanii (ATCC-30868) trophozoites; experiment: In vitro anti-Acanthamoeba activity, A. castellanii trophozoite viability; type: cell-based; details: for IC50: mean±SD of 3 independent experiments; for SI, sensitivity index (CC50 C6 glial cells / IC50 A. castellanii): ratio CC50 C6 glial cells / IC50 A. castellanii; for antiamoebic activity against A. castellanii (in words): in vitro
[3] = test system: A. polyphaga (ATCC-30461) trophozoites; experiment: In vitro anti-Acanthamoeba activity, A. polyphaga trophozoite viability; type: cell-based; details: for IC50: mean±SD of 3 independent experiments; for SI, sensitivity index (CC50 C6 glial cells / IC50 A. polyphaga): ratio CC50 C6 glial cells / IC50 A. polyphaga; for antiamoebic activity against A. polyphaga (in words): in vitro
[4] = Cytotoxicity against C6 glial cells; type: cell-based, rat; details: rat, C6 glial cells
[5] = test system: C6 rat glial cells (ATCC CCL-107); experiment: Cytotoxicity against C6 glial cells; type: cell-based; details: read-out: C6 glial cells (CC50 ±SD); C6 rat glial cells, 0–400 μM; mean±SD of 3 independent assays
[6] = Naegleria fowleri, ATCC30215, 48 h, read-out: N. fowleri (IC50 ±SD, μM), trophozoites, 0–400 μM, 37°C, 48 h
[7] = Acanthamoeba castellanii, ATCC30868, 48 h, read-out: A. castellanii (IC50 ±SD, μM), trophozoites, 0–400 μM, 25°C, 48 h
[8] = read-out: A. castellanii (IC50 ±SD), trophozoites, 0–400 μM, 25°C, 48 h
[9] = Acanthamoeba polyphaga, ATCC30461, 48 h, read-out: A. polyphaga (IC50 ±SD, μM), trophozoites, 0–400 μM, 25°C, 48 h
[10] = read-out: A. polyphaga (IC50 ±SD), trophozoites, 0–400 μM, 25°C, 48 h
[11] = trophozoites, listed as berberine

SMILES	IC50 [1, 6]	SI, sensitivity index (CC50 C6 glial cells / IC50 N. fowleri) [1]	antiamoebic activity against N. fowleri (in words) ([1]; trophozoites)	IC50 [2, 7]	SI, sensitivity index (CC50 C6 glial cells / IC50 A. castellanii) [2]	IC50 [2, 8]	IC50 [3, 9]	SI, sensitivity index (CC50 C6 glial cells / IC50 A. polyphaga) [3]	IC50 [3, 10]	CC50 [4]	antiamoebic activity against A. castellanii (in words) ([2]; trophozoites)	antiamoebic activity against A. polyphaga (in words) ([3]; trophozoites)	other results
Oc1cc(O)c2c(c1)O[C@H](c1ccc(O)c(O)c1)[C@H](O)C2 [(−)-Epicatechin, (−)-epicatechin]	102.6 ± 0.97 µM	3.11	did not show significative anti-N. fowleri activities	< 50 µM	9.55	33.4 ± 0.68 µM	< 50 µM	12.73	25.02 ± 0.14 µM	318.6 ± 0.82 µM			SI, sensitivity index (CC50 C6 glial cells / IC50 A. castellanii) ([2]; listed as (−)-epicatechin): > 8; SI, sensitivity index (CC50 C6 glial cells / IC50 A. polyphaga) ([3]; listed as (−)-epicatechin): > 8
Oc1cc(O)c2c(c1)O[C@H](c1cc(O)c(O)c(O)c1)[C@H](O)C2 [(−)-Epigallocatechin, (−)-epigallocatechin]		2.44	did not show significative anti-N. fowleri activities		8.68	32.1 ± 1.03 µM		11.55	24.16 ± 0.16 µM				IC50 ([1]; read-out: N. fowleri (IC50 ±SD), trophozoites, 0–400 μM, 37°C, 48 h): 114.6 ± 0.48 µM; SI, sensitivity index (CC50 C6 glial cells / IC50 A. castellanii) ([2]; listed as (−)-epigallocatechin): > 8; IC50 ([2]; read-out: A. castellanii (IC50 ±SD), trophozoites, 0–400 μM, 25°C, 48 h, listed as (−)-epigallocatechin): < 50 µM; SI, sensitivity index (CC50 C6 glial cells / IC50 A. polyphaga) ([3]; listed as (−)-epigallocatechin): > 8; IC50 ([3]; read-out: A. polyphaga (IC50 ±SD), trophozoites, 0–400 μM, 25°C, 48 h, listed as (−)-epigallocatechin): < 50 µM; CC50 [5]: 279 ± 0.3 µM
C=C1CC/C=C(\C)CC[C@@H]2[C@@H]1CC2(C)C [(−)-trans-Caryophyllene, (−)-trans-caryophyllene]	84.78 ± 0.65 µM	2.60		65.1 ± 1.42 µM	3.39		44.8 ± 1.41 µM	4.92		220 ± 2.42 µM			
C[C@@H]1O[C@@H](Oc2c(-c3ccc(O)cc3)oc3cc(O)cc(O)c3c2=O)[C@H](O)[C@H](O)[C@H]1O [Afzelin, afzelin]	> 230 µM			> 230 µM			> 230 µM			> 230 µM	did not exhibit potential or selective antiamoebic activity	did not exhibit potential or selective antiamoebic activity	
CC[C@H]1OC(=O)[C@H](C)[C@@H](O[C@H]2C[C@@](C)(OC)[C@@H](O)[C@H](C)O2)[C@H](C)[C@@H](O[C@@H]2O[C@H](C)C[C@H](N(C)C)[C@H]2O)[C@](C)(O)C[C@@H](C)CN(C)[C@H](C)[C@@H](O)[C@]1(C)O [Azithromycin, Azithromycin dihydrate, reference compound]	14.7 ± 1.65 µM	5.88		12.1 ± 0.2 µM	7.12		4.12 ± 0.11 µM	20.93		86.2 ± 0.93 µM			
COc1ccc2cc3[n+](cc2c1OC)CCc1cc2c(cc1-3)OCO2 [Berberine, berberine]	> 260 µM		did not affect	> 260 µM			> 260 µM			159.7 ± 1.23 µM	did not affect	did not affect	antiamoebic activity against A. castellanii (in words) [2, 11]: did not exhibit potential or selective antiamoebic activity; antiamoebic activity against A. polyphaga (in words) [3, 11]: did not exhibit potential or selective antiamoebic activity
C=C1C(=O)O[C@@H]2/C=C(\C)CC/C=C(\C)CC[C@@H]12 [Costunolide, costunolide]	65.56 ± 0.58 µM	2.92		< 50 µM	5.97	32 ± 1.14 µM	< 50 µM	5.44	35.1 ± 0.74 µM	191.2 ± 1.18 µM			
O=c1c(-c2ccc(O)cc2)coc2cc(O)cc(O)c12 [Genistein, genistein]	157.4 ± 0.57 µM	0.66		> 370 µM			> 370 µM			104 ± 1.08 µM	did not exhibit potential or selective antiamoebic activity	did not exhibit potential or selective antiamoebic activity	
